The text below walks through data of a melting point compilation (Tetko et al.; mined from patent text by program, amines drawn as free bases though some values may be those of a salt).

The structures appear in SMILES notation.

On to `CCOC(=O)C1=C(C)NN=C(C(=O)OC)C1c1ccccc1C#N` (stereo not drawn), for which the melting point (usually the temperature, or range, at which the solid turns liquid) was 199 °C.
For `O=C1CCC(c2ccccc2)(c2ccccc2)C2CN(C(Cc3ccccc3)=NCc3ccccn3)CC12` (stereo not drawn) the value was 180 °C; for `CC(C#Cc1ccc(C(O)c2cc3ccccc3s2)s1)N(O)C(N)=O` (stereo not drawn), 65 to 70 °C; for `O=C(O)c1cn(-c2nccs2)c2c(F)c(F)c(F)cc2c1=O`, 198 to 200 °C.
With `CC(C)(C)OC(=O)NCCOc1ccc(OCC2(C)OCCO2)cc1` the figure was 80 to 82 °C; with `CS(=O)(=O)c1ccc(-c2[nH]c3ccccc3c2-c2ccc(Cl)cc2)cc1`, 198 to 200 °C.
The compound `CC(C)(C)OC(=O)NCCCCNOC(=O)c1ccccc1` yielded a melting point of 113 to 114 °C.
With `CN(C)CCCCCCOc1ccc(C(=O)c2ccc(F)cc2)cc1` the figure was 37 to 38 °C.
With `COc1ccc(N2CCN(c3c(C)c(C)c4c(c3C)CC(C)(C)O4)CC2)cn1` the figure was 178 to 180 °C.
With `Nc1nc2c(ncn2COC(COCc2ccccc2)COCc2ccccc2)c(=O)[nH]1` the figure was 170 to 177 °C; with `Cc1cccc(-c2cncc(OC3SCC(O)C(O)C3O)c2)n1` (stereo not drawn), 188 °C; with `CCOc1ccc(-c2nc(-c3ccc(N4CCOCC4)c([N+](=O)[O-])c3)cs2)cc1OCC`, 119 to 120 °C.
Take `Cc1ccc(Sc2c(Sc3ccc(C)cc3)c(Sc3ccc(C)cc3)c(C(O)=NCCO)c(C(=O)O)c2Sc2ccc(C)cc2)cc1`: the melting point was in the range of 161 to 162 °C.
With `N#Cc1c[nH]nc1-c1ccccc1Cl` the figure was 160 °C.
`COc1cc(OC)c(-c2cc3ccccc3[nH]2)cc1C=CC(=O)c1ccc(S(=O)(=O)NCC(=O)O)cc1` had a melting point of 189 to 190 °C.
In the case of `Cc1cccc(C)c1-n1cnc(NCc2ccccn2)nc1=O`, the melting point lay in the range of 165 to 166 °C.
With `COc1ccc2c(c1)Cc1cc(CCC(C)=O)ccc1-2` the figure was 100 to 101 °C; with `Cn1ccnc1Sc1ccc(I)cc1Cl`, 99 to 101 °C; with `CCCCC1=Nc2ccccc2C(=O)C1`, 140 °C.
For `Cc1cn(-c2cccc(OS(N)(=O)=O)c2)cn1` the value was 202 to 204 °C.
For `O=c1ccn(C2C=CC(COC(c3ccccc3)(c3ccccc3)c3ccccc3)O2)c(=O)[nH]1` (stereo not drawn) the value was 188 to 191 °C; for `COC(=O)[C@H](CSC)Nc1ncccc1[N+](=O)[O-]`, 95 to 97 °C.
For `CCCN(CCC)Cc1cnc(-c2ncn3c2CN(C)C(=O)c2sccc2-3)o1`, the melting point is 142 to 144 °C.
Consider `COc1nnc2n1C=Cc1cc(C)ccc1C2`, for which the melting point lay in the range of 148 to 149 °C.
With `O=C(NCCCCC1CCSS1)N1CCCC1` (stereo not drawn) the figure was 91 to 93 °C; with `O=C(O)c1ccc(OCc2ccc(Cl)c(Cl)c2)cc1`, 222 to 223 °C; with `CC1(c2cc(/C=C/c3ccc(C(=O)O)cc3)ccc2O)CCCCC1`, 229 °C.
For `COc1cc(C)c(C=CC(C)=CC=CC(C)=CC(=O)NC(C)C)c(C)c1C` the value was 200 °C.
With `Cc1ccc(C(F)(F)F)c2sc(Sc3ccc4c(c3)CCC3N(C)C(=O)CCC43C)nc12` (single isomer, unassigned; (+)) the figure was 50 to 54 °C.
As for `CCCCCCCCCCCCCCOc1ccc(C(=O)OC)cc1`, the melting point lay within 56 to 58 °C.
Regarding `CCCCn1c(=O)c2c(ncn2S(=O)(=O)c2ccc(N(OC(C)=O)C(C)=O)cc2)n(CCCC)c1=O`, the melting point is 155 to 157 °C.
In the case of `c1ccc(CN2CCc3[nH]c4cc(-c5ccccc5)ccc4c3CC2)cc1`, the melting point lay within 176 to 177 °C.
For `Cc1nc2ccccn2c1CN1CCC(Nc2nc3ccccc3n2Cc2ccc(F)cc2)CC1` the value was 198 °C; for `COc1ccc(C(=O)CO)cc1`, 101 to 103 °C; for `O=S(=O)(Nc1ccc2c(OCc3csc(-c4ccccc4)n3)cccc2c1)C(F)(F)F`, 89 to 99 °C.
With `Cn1ccc2c3c(c(C(=O)OCc4ccccc4)cc21)C(=O)NC3=O` the figure was 186 to 189 °C; with `O=C(O)Cc1cccc(C(=O)c2ccc(Cl)cc2)c1[N+](=O)[O-]`, 164 to 165 °C.
For `CN(C)C(=O)Nc1nc2ccccc2s1` the value was 214 to 216 °C.
`Nc1ccc(N2CCN(c3ccccc3OCC3COC(Cn4cncn4)(c4ccc(Cl)cc4Cl)O3)CC2)cc1` (stereo not drawn) had a melting point of 187 °C.
For `CN(C)C(=S)SSCCSSC(=S)N(C)C` the value was 142 to 143 °C; for `O=C1CCN(Cc2ccccc2OC(F)(F)F)CC1C(c1ccc(F)cc1)c1ccc(F)cc1` (stereo not drawn), 88 to 89 °C; for `CCCc1nn(C)c2c(=O)[nH]c(-c3ccccc3OC)nc12`, 140 to 141 °C.
With `CCOC(=O)c1c(C(F)F)nc(C(F)(F)F)c(C(=O)OCC)c1NC(C)(C)C` the figure was 30 to 31 °C.
For `COc1ccc(/C=C/c2ccncc2[N+](=O)[O-])cc1OC1CCCC1` the value was 114 to 116 °C; for `CCc1cc2nc(N)c(-c3ccccc3)cc2c(CC)n1`, 110 to 112 °C.
For the compound `CCCCn1nnc2cc(C(=O)O)ccc21`, the melting point worked out at 192 °C.
For `COC(=O)c1cc(N2CCCC2)c(Oc2ccccc2)c(S(N)(=O)=O)c1` the value was 191 °C; for `On1nc(Br)c(Cl)c1Br`, 160 °C; for `CC(=O)N(c1ccc(N2CCN(C)CC2)cc1)c1ncc2c(n1)S/C(=C/c1ccc(C(=O)O)cc1)C(=O)N2`, 326 to 330 °C.
Take `Cc1c(O)cc2c(c1Br)[C@H](O)[C@H](N1CCC(O)(c3ccc(F)cc3)CC1)CO2` (relative stereo): the melting point was determined as 196 °C.
With `Clc1ccc(N2CCN(Cc3cn4cc(Cl)ccc4n3)CC2)cc1` the figure was 145 to 146 °C; with `O=[N+]([O-])c1cc(-c2cn3ncsc3n2)cc(O)c1O`, 278 to 280 °C; with `Cn1c(=O)oc2cc(CCO)cnc21`, 142 to 144 °C.
Regarding `N#CNc1nc2ccc(Cl)cc2[nH]1`, the melting point was over 300 °C.
With `O=C1CCN(c2cc3c(cc2-c2ccccc2F)NC(=O)CC(c2cccc(-n4ccnc4)c2)=N3)CC1` the figure was 230 °C.
For `Cc1ccc(-n2nc(C(C)(C)C)cc2NC(=O)NCc2ccccc2Oc2ccnc(N3CCN(C)CC3)n2)cc1` the value was 150 °C.
For `CC(C)Oc1ccc2nc3ccc(C(=O)O)cn3c(=O)c2c1` the value was 256 to 267 °C; for `Nc1ncc(-c2cccc3ccc(Br)cc23)o1`, 189 to 190 °C.
`Cn1cccc1C1=C(Cl)C(=O)c2cccnc2C1=O` came in with a melting point of 168 to 169 °C.
With `O=[N+]([O-])c1ccc(/C=C/c2ccc(O)cc2)cc1` the figure was 210 °C; with `CS(=O)(=O)N1CCN(CCC(CS(=O)(=O)c2ccc(Oc3ccc(OC(F)(F)F)cc3)cc2)N(O)C=O)CC1` (stereo not drawn), 166 to 167 °C.
`CC(C)n1c(CC[C@@H]2C[C@H](CC(=O)OC(C)(C)C)OC(C)(C)O2)c(-c2ccc(F)cc2)c(-c2ccccc2)c1C(N)=O` yielded a melting point of 201 to 202 °C.
For `CCN(CC)CC(=O)Nc1ccc(NC(=O)CN(CC)CC)c2c1C(=O)c1ccccc1C2=O` the value was 85 to 86 °C; for `CCN(CC)C(=O)c1cc(-c2ccccc2)ccc1-c1ccc(OC)cc1`, 139 to 141 °C.
For `CCSc1ncccc1C(=O)N1CCC(=O)c2ccc(Cl)cc21` the value was 120 to 123 °C; for `COCN1C(C)=C(C(=O)OCOC(=O)C(C)(C)C)C(c2cccc(Cl)c2Cl)C(C(=O)OCOC(=O)C(C)(C)C)=C1C`, 103 to 104 °C; for `CCc1c(CC)n(Cc2ccccc2Cl)c2cc(C(N)=O)ccc12`, 185 to 188 °C.
Compound `CNC(=O)c1cnn(-c2ccc(Br)cc2)c1C#N` yielded a melting point of 240 to 241 °C.
With `CCCOc1ccccc1Nc1ncc(C(=O)OCC)c(=O)[nH]1` the figure was 198 to 200 °C; with `COc1ccc(C(=O)C2CCN(CCCO)CC2)cc1`, 102 to 105 °C.
For `CNC(=O)N1CC(Oc2ccc(Br)cc2)C1` the value was 135 to 137 °C; for `C=CCNc1nc(-c2ccc(=O)n(C(C)C)n2)c(-c2ccccc2)nc1N`, 208 to 210 °C.
Regarding `COc1cc(C=NO)c2oc(-c3ccc(OC)c(F)c3)cc2c1`, the melting point is 208 to 210 °C.
With `CN1C(=O)N(C)C(c2c(C(C)(C)C)cc(O)cc2C(C)(C)C)N(C)C1=O` the figure was 194 to 196 °C; with `CC(C)(C)OC(=O)N(C(=O)OC(C)(C)C)C(=O)c1cc2cc(Br)ccc2o1`, 138 to 139 °C.
For `Cc1sc2c(Br)c3ccccc3c(-c3cc(Br)c(O)c(Br)c3)c2c1C` the value was 172 to 174 °C; for `COc1cc2c(Nc3cccc(N(C)C)c3)c(C#N)cnc2c(OC)c1OC`, 142 to 144 °C; for `Cc1ccc(OCCC(CCl)NC(=O)c2c(F)cccc2F)cc1` (stereo not drawn), 97 to 99 °C.
For `CC(C)(CNS(=O)(=O)c1ccc(-c2ccccn2)s1)N1CCC(Oc2ccc(F)c(F)c2)CC1` the value was 133 to 134 °C.
On to `CCc1cccc(C)c1CNc1cc(Br)cc2c1ncn2C`, for which the melting point is 132 to 134 °C.
`Cn1c(-c2ccc(OCC(O)CNC(C)(C)C)cc2)cc2ccccc2c1=O` (stereo not drawn): the melting point was 130 to 132 °C.
With `Cc1c(CC(=O)O)c2cc(OCc3nc4ccccc4s3)ccc2n1Cc1ccc(Cl)cc1` the figure was 175 to 176 °C.
With `CN1N=C(C2CCCCC2)CC1=O` the figure was 170 to 172 °C; with `Oc1ccc(Nn2cccc2)c2ccccc12`, 83 to 84 °C.
In turn, `CC1(C)Cc2cccc(C(=O)O)c2S1` came in with a melting point of 179 to 182 °C.
For `COc1c(C2CCN(CCCCNC(=O)c3ccc(-c4ccc(NS(C)(=O)=O)cc4)cc3)CC2)ccc2c1CCCC2` the value was 200 to 202 °C; for `CN(C)NC(=O)c1cc(S(C)(=O)=O)c(Cl)cc1NCc1ccco1`, 90 to 104 °C; for `COc1cc(F)c(CN(C=O)CCc2ccc(O)cc2)cc1O`, 153 to 168 °C.
